{"source": "patent US20120190703A1", "about": "“SALTS OF 13A-(S)DESOXYTYLOPHORININE, PREPARATION METHODS AND PHARMACEUTICAL COMPOSITIONS AND USES THEREOF” (priority 2009, published 2012)", "key": {"[1]": {"assay": "Solubility in water", "type": "physicochemical"}, "[2]": {"assay": "Plasma pharmacokinetics after oral administration in mice", "procedure": "To determine the pharmacokinetic characters of 13a-(S)-deoxytylophorinine and its salts, the studies about plasma pharmacokinetics and the character of distribution in brain were pursued.\n(§1) Male ICR mice. Body weight 18˜22 g.\n(+)-13a-(S)-deoxytylophorinine Tartrate, (+)-13a-(S)-deoxytylophorinine Maleate, (+)-13a-(S)-deoxytylophorinine Citrate. All were dissolved in distilled water as 0.6 mg/ml solution before experiment progressed.\n72 mice were divided to 3 groups with 24 animals per group, fasting for 16 h and drinking water freely. […] Plasma was isolated by centrifugalization. After the salts were administered orally, the brain tissues of mice were collected at 5 min, 15 min, 2 h time points. 25% tissue homogenate was prepared with normal saline addition. 200 μL of homogenate and plasma were added isovolumic MeCN to precipitate protein. 5 μL of clear supernatant was analyzed by LC/MS/MS.\n(+)-13a-(S)-deoxytylophorinine was dissolved in DMSO and then diluted with MeOH with concentration 10, 50, 100, 500, 1000 and 2500 ng/ml respectively. 10 μl of standard solutions of (+)-13a-(S)-deoxytylophorinine with different concentration above were added to 200 μl of blank plasma sequently to adjust the concentration to 0.5, 2.5, 5, 25, 50, 125 ng/ml respectively. MeCN was added to the solution to precipitate protein, and 5 μl of result clear supernatant was analyzed with LC/MS/MS. Linear regression was ran with the peak area of (+)-13a-(S)-deoxytylophorinine as ordinate and the concentrations as abscissa."}, "[3]": {"test_system": "H22 tumor-bearing mice", "conditions": "intragastric once daily", "text": "To determine the pharmacodynamic characters of 13a-(S)-deoxytylophorinine and its salts, the impact of these compounds to the tumor growth in H22 tumor-bearing mice was surveyed.\nMale Kunming mice were obtained from the Laboratory Animal Center, Academy of Military Medical Science. Body weight 18˜22 g. 6 animals per group, totally 10 groups, 60 animals.\n(+)-13a-(S)-deoxytylophorinine, (+)-13a-(S)-deoxytylophorinine Tartrate, (+)-13a-(S)-deoxytylophorinine Maleate, (+)-13a-(S)-deoxytylophorinine Citrate, Cytoxane (CTX) as positive control.\n(+)-13a-(S)-deoxytylophorinine was administered at high dose (5 mg/kg) and low dose (2.5 mg/kg). Three (+)-13a-(S)-deoxytylophorinine salts were administered at high dose and low dose as equal moles with their prototype (Tartrate: 7.05 mg/kg, 3.53 mg/kg; Malate: 6.60 mg/kg, 3.30 mg/kg; Citrate: 7.90 mg/kg, 3.95 mg/kg).\nAnimals were reared in SPF grade circumstance to be observed for 24 h. The tumor cells liquid which resuscitated in abdominal cavity of KM mice was diluted with aseptic normal saline at 1:3 ratio. The resulting liquid was inoculated subcutaneously at forelimb with 0.2 mL every animal. After the injection over, the animals were divided to […] with 6 animals per group.\nFour experimental samples were intragastric administered once daily 24 h after inoculation. The positive control CTX was intraperitoneal injected once daily. The animal body weight was recorded every day."}, "[4]": {"assay": "Drug distribution in brain tissue after oral administration in mice", "type": "in vivo, ICR mice", "conditions": "for Brain contents of (+)-13a-(S)-deoxytylophorinine (ng/ml), Mean ± SD / Brain contents of (+)-13a-(S)-deoxytylophorinine (ng/ml), individual animals 1-3: 6 mg/kg oral", "procedure": "as §1\nPlasma was isolated by centrifugalization. […] 25% tissue homogenate was prepared with normal saline addition.\nThe drug concentration-time data in brain tissue after administered orally of (+)-13a-(S)-deoxytylophorinine tartrate, maleate and citrate were represented in Table 8˜10 and FIG. 6˜8. […] (+)-13a-(S)-deoxytylophorinine could be detected in 5 min. The peak concentration was reached after 15 min, and the compound still can be detected after 2 h after administration."}, "[5]": {"conditions": "6 mg/kg oral, mice, Time (min) 0.08"}, "[6]": {"conditions": "6 mg/kg oral, mice, Time (min) 0.25"}, "[7]": {"conditions": "6 mg/kg oral, mice, Time (min) 0.5"}, "[8]": {"conditions": "6 mg/kg oral, mice, Time (min) 1"}, "[9]": {"conditions": "6 mg/kg oral, mice, Time (min) 2"}, "[10]": {"conditions": "6 mg/kg oral, mice, Time (min) 3"}, "[11]": {"conditions": "6 mg/kg oral, mice, Time (min) 4"}, "[12]": {"conditions": "6 mg/kg oral, mice, Time (min) 6"}, "[13]": {"conditions": "male, ICR, mouse, plasma, po, 6 mg/kg"}, "[14]": {"conditions": "high dose × 7 d, equal moles: prototype 5.0, tartrate 7.05, maleate 6.60, citrate 7.90 mg/kg"}, "[15]": {"conditions": "low dose × 7 d, equal moles: prototype 2.5, tartrate 3.53, maleate 3.30, citrate 3.95 mg/kg"}}, "note": "Where “and” joins values, the source holds several entries; their conditions need not be identical. Equal values may be shown once. Read-outs that look alike come from different tables or passages of the source. Marks after values point to notes of the source that are not given here."}
{"molecule": "COc1ccc2c3c(c4cc(OC)c(OC)cc4c2c1)CN1CCC[C@H]1C3.O=C(O)/C=C\\C(=O)O", "note": "[Maleate, (+)-13a-(S)-deoxytylophorinine Maleate]", "values": [{"measurement": "Solubility in water (words)", "setting": "[1]", "result": "soluble in water"}, {"measurement": "solubility", "setting": "[1]; water", "result": 44, "unit": "mg/mL"}, {"measurement": "Peak concentration in blood", "setting": "[2]; 6 mg/kg oral, mice", "result": "35.4 ± 3.5", "unit": "ng/mL"}, {"measurement": "Time of peak concentration in blood", "setting": "[2]; 6 mg/kg oral, mice", "result": 5, "unit": "min"}, {"measurement": "t½z", "setting": "[2]; 6 mg/kg oral, mice, plasma, non-compartment model", "result": 1.72, "unit": "h"}, {"measurement": "Blood concentration of (+)-13a-(S)-deoxytylophorinine (ng/ml), Mean ± SD", "setting": "[2]; [5]", "result": "35.4 ± 3.5", "unit": "ng/mL"}, {"measurement": "Blood concentration of (+)-13a-(S)-deoxytylophorinine (ng/ml), individual animals 1-3", "setting": "[2]; [5]", "result": "33.0 ng/mL and 37.9 ng/mL"}, {"measurement": "Blood concentration of (+)-13a-(S)-deoxytylophorinine (ng/ml), Mean ± SD", "setting": "[2]; [6]", "result": "27.4 ± 6.2", "unit": "ng/mL"}, {"measurement": "Blood concentration of (+)-13a-(S)-deoxytylophorinine (ng/ml), individual animals 1-3", "setting": "[2]; [6]", "result": "24.2 ng/mL and 23.5 ng/mL and 34.6 ng/mL"}, {"measurement": "Blood concentration of (+)-13a-(S)-deoxytylophorinine (ng/ml), Mean ± SD", "setting": "[2]; [7]", "result": "12.2 ± 4.0", "unit": "ng/mL"}, {"measurement": "Blood concentration of (+)-13a-(S)-deoxytylophorinine (ng/ml), individual animals 1-3", "setting": "[2]; [7]", "result": "15.7 ng/mL and 13.0 ng/mL and 7.9 ng/mL"}, {"measurement": "Blood concentration of (+)-13a-(S)-deoxytylophorinine (ng/ml), Mean ± SD", "setting": "[2]; [8]", "result": "9.2 ± 3.2", "unit": "ng/mL"}, {"measurement": "Blood concentration of (+)-13a-(S)-deoxytylophorinine (ng/ml), individual animals 1-3", "setting": "[2]; [8]", "result": "12.5 ng/mL and 6.2 ng/mL and 8.7 ng/mL"}, {"measurement": "Blood concentration of (+)-13a-(S)-deoxytylophorinine (ng/ml), Mean ± SD", "setting": "[2]; [9]", "result": "11.2 ± 8.0", "unit": "ng/mL"}, {"measurement": "Blood concentration of (+)-13a-(S)-deoxytylophorinine (ng/ml), individual animals 1-3", "setting": "[2]; [9]", "result": "2.0 ng/mL and 15.9 ng/mL and 15.7 ng/mL"}, {"measurement": "Blood concentration of (+)-13a-(S)-deoxytylophorinine (ng/ml), Mean ± SD", "setting": "[2]; [10]", "result": "8.6 ± 6.6", "unit": "ng/mL"}, {"measurement": "Blood concentration of (+)-13a-(S)-deoxytylophorinine (ng/ml), individual animals 1-3", "setting": "[2]; [10]", "result": "3.6 ng/mL and 16.1 ng/mL and 6.3 ng/mL"}, {"measurement": "Blood concentration of (+)-13a-(S)-deoxytylophorinine (ng/ml), Mean ± SD", "setting": "[2]; [11]", "result": "2.8 ± 0.9", "unit": "ng/mL"}, {"measurement": "Blood concentration of (+)-13a-(S)-deoxytylophorinine (ng/ml), individual animals 1-3", "setting": "[2]; [11]", "result": "2.6 ng/mL and 2.0 ng/mL and 3.8 ng/mL"}, {"measurement": "Blood concentration of (+)-13a-(S)-deoxytylophorinine (ng/ml), Mean ± SD", "setting": "[2]; [12]", "result": "1.2 ± 1.0", "unit": "ng/mL"}, {"measurement": "Blood concentration of (+)-13a-(S)-deoxytylophorinine (ng/ml), individual animals 1-3", "setting": "[2]; [12]", "result": "2.3 ng/mL and 1.0 ng/mL and 0.4 ng/mL"}, {"measurement": "AUC(0-inf)", "setting": "[2]; [13]", "result": 49.9, "unit": "ng·h/mL"}, {"measurement": "AUC(0-t)", "setting": "[2]; [13]", "result": 46.9, "unit": "ng·h/mL"}, {"measurement": "Cmax", "setting": "[2]; [13]", "result": 35.5, "unit": "ng/mL"}, {"measurement": "MRT inf", "setting": "[2]; [13]", "result": 2.18, "unit": "h"}, {"measurement": "MRT last", "setting": "[2]; [13]", "result": 1.78, "unit": "h"}, {"measurement": "Tmax", "setting": "[2]; [13]", "result": 4.8, "unit": "min"}, {"measurement": "Animal No. (Initial/Final)", "setting": "[3]; [14]", "result": "6/4"}, {"measurement": "Body Weight(g) Final", "setting": "[3]; [14]", "result": "13.62 ± 2.08", "unit": "g"}, {"measurement": "Body Weight(g) Initial", "setting": "[3]; [14]", "result": "21.17 ± 0.98", "unit": "g⁻¹"}, {"measurement": "Inhibition (%)", "setting": "[3]; [14]", "result": "73.58** %"}, {"measurement": "Tumor Weight (g, mean ± SD)", "setting": "[3]; [14]", "result": "0.30 ± 0.24", "unit": "g"}, {"measurement": "Animal No. (Initial/Final)", "setting": "[3]; [15]", "result": "6/6"}, {"measurement": "Body Weight(g) Final", "setting": "[3]; [15]", "result": "23.79 ± 0.52", "unit": "g"}, {"measurement": "Body Weight(g) Initial", "setting": "[3]; [15]", "result": "22.50 ± 1.05", "unit": "g⁻¹"}, {"measurement": "Inhibition (%)", "setting": "[3]; [15]", "result": 45.56, "unit": "%"}, {"measurement": "Tumor Weight (g, mean ± SD)", "setting": "[3]; [15]", "result": "0.62 ± 0.31", "unit": "g"}, {"measurement": "Brain contents of (+)-13a-(S)-deoxytylophorinine (ng/ml), Mean ± SD", "setting": "[4]; Time (min) 5", "result": "150.2 ± 84.8", "unit": "ng/mL"}, {"measurement": "Brain contents of (+)-13a-(S)-deoxytylophorinine (ng/ml), individual animals 1-3", "setting": "[4]; Time (min) 5", "result": "245.2 ng/mL and 82.5 ng/mL and 122.7 ng/mL"}, {"measurement": "Brain contents of (+)-13a-(S)-deoxytylophorinine (ng/ml), Mean ± SD", "setting": "[4]; Time (min) 15", "result": "150.3 ± 49.8", "unit": "ng/mL"}, {"measurement": "Brain contents of (+)-13a-(S)-deoxytylophorinine (ng/ml), individual animals 1-3", "setting": "[4]; Time (min) 15", "result": "159.3 ng/mL and 96.6 ng/mL and 194.9 ng/mL"}, {"measurement": "Brain contents of (+)-13a-(S)-deoxytylophorinine (ng/ml), Mean ± SD", "setting": "[4]; Time (min) 120", "result": "108.8 ± 74.7", "unit": "ng/mL"}, {"measurement": "Brain contents of (+)-13a-(S)-deoxytylophorinine (ng/ml), individual animals 1-3", "setting": "[4]; Time (min) 120", "result": "27.2 ng/mL and 173.7 ng/mL and 125.4 ng/mL"}, {"measurement": "Drug contents in brain compared with prototype", "setting": "[4]; oral, 3 time points", "result": "higher than their prototype"}]}
